Test results reported in patent US20040044178A1, “Hepatotropic conjugates of antiblastic drugs accomplishing a loco-regional chemotherapy of liver micrometastases after adminstration by peripheral venous route” (priority 2001, published 2004).
Read-outs that look alike come from different tables or passages of the source.

What was measured:
[1] = system: serum alanine aminotransferase (ALT); test: Effect on alanine aminotransferase (ALT) serum levels in mouse; format: in vivo
Protocol: To verify whether the selective delivery of FUdR to hepatic cells accomplished by the conjugate causes liver damage, we compared the effect of free and conjugated FUdR on the serum alanine aminotransferase (ALT) (EC 2.6.1.2) level in mice (Table 3). An increase in the level of this enzyme is an index of hepatocyte damage. The drugs were administered according to the schedule used for the experiments on the growth of hepatic metastases.

[2] = system: hepatic metastases of murine colon carcinoma C-26 cells; test: Effect of free and conjugated FUdR on liver metastases of C-26 cells in mouse; format: in vivo; details: for Increase of liver weight: saline 1.22 ± 0.25; for Total Liver DNA: saline 11.83 ± 1.75
Protocol: Female Balb/C mice 7-8 weeks old (weighing 16-19 g) and male Wistar rats (weighing 170-190 g) were used. They were obtained from Harlan Italy and were maintained in an animal facility at the Department of Experimental Pathology, Bologna, receiving humane care, in accordance with European Legislation. The protocols of the experiments were approved by the Ethical Committee of the University of Bologna. Animals. were fed a standard pellet diet ad lib.
Compounds were injected intravenously every other day, starting 24 h after inoculation of tumour cells. Four administrations were performed, and the animals were sacrificed one day after the injection.

[3] = [^3H]FUdR levels in inferior vena cava (IVC) and hepatic veins (HV) of rats intravenously injected with free or L-HSA conjugated [^3H]FUdR; format: in vivo; details: rat
Description: Two radioactive conjugates were synthesised: one labelled in the carrier (L-[^14C]HSA-FUdR) and one in the drug moiety (L-HSA-[^3H]FUdR). […] The conjugateradioactive in the drug moiety (three preparations) was obtained using [^3H]FUdR (Moravek).
They were obtained from Harlan Italy and were maintained in an animal facility at the Department of Experimental Pathology, Bologna, receiving humane care, in accordance with European Legislation. The protocols of the experiments were approved by the Ethical Committee of the University of Bologna. Animals. were fed a standard pellet diet ad lib.
Plasma levels of free [^3H]FUdR were measured by using the isotope dilution procedure and HPLC. In order to identify the elution time of [^3H]FUdR in HPLC chromatogram and to evaluate the recovery, 15 μg of unlabeled FUdR was added to each plasma sample (400 μl), kept cold in ice. Plasma proteins were removed by the addition of 30 μl trichloroacetic acid 80% and centrifugation at 2-4° C. After diethylether extraction to eliminate trichloroacetic acid, […] supernatant was chromatographed on a Spherisorb ODS2 equilibrated on 20 mM sodium tetraborate pH 7.5 and eluted with a linear gradient of methanol (0-30%). Radioactivity eluting at the position of FUdR marker was counted and the plasma concentration of [^3H]FUdR was calculated taking into account the recovery of the marker (measured by UV absorbance) and the specific activity (SA) of injected [^3H]FUdR. […] When radioactivity of FUdR peak was lower than 200 dpm, the plasma concentration of [^3H]FUdR was considered below a measurable level (BML). With a 90% recovery of FUdR marker, the lowest measurable plasma concentration was about 25 ng [^3H]FUdR/ml.
These concentrations are a measure of drug levels in systemic circulation and in liver blood, respectively.

[4] = patients with colorectal cancer, intravenous continuous infusion of a therapeutic dose; cited from earlier work
[5] = Exp. 1, daily dose 5 μg/g i.v. every other day x4, NS

O=c1[nH]c(=O)n([C@H]2C[C@H](O)[C@@H](CO)O2)cc1F [Free FUdR, 5-fluoro-2′-deoxyuridine]
Serum ALT levels ([1]; Exp 2, 50 μg/g, four i.v. injections on alternate days, saline 64.5 ± 15.0, p = 0.045): 114.8 ± 16.0 p = 0.045 U/I
Effect on serum ALT level ([1]; dose 5 times higher than that active on the metastases): increase in ALT levels at the limit of statistical significance
Increase of liver weight [2, 5]: 1.00 ± 0.17 g
Total Liver DNA [2, 5]: 9.47 ± 1.06 mg
Increase of liver weight ([2]; Exp. 1, daily dose 10 μg/g i.v. every other day x4, p = 0.070): 0.64 ± 0.15 g
Total Liver DNA ([2]; Exp. 1, daily dose 10 μg/g i.v. every other day x4, p = 0.041): 7.32 ± 0.91 mg
Daily dose that inhibited the tumour growth ([2]; i.v. every other day, four administrations): 10 µg/g
concentration at 15 min ([3]; male, Wistar, plasma of hepatic vein blood, iv, i.v. 2.5 μg/g, 15 min, read-out: [^3H]FUdR level HV): 57.6 ± 9 ng/mL
concentration at 7 min ([3]; male, Wistar, plasma of hepatic vein blood, iv, i.v. 10 μg/g, 7 min, read-out: [^3H]FUdR level HV): 385 ng/mL
concentration at 15 min ([3]; male, Wistar, plasma of hepatic vein blood, iv, i.v. 10 μg/g, 15 min, read-out: [^3H]FUdR level HV): 203 ng/mL
concentration at 30 min ([3]; male, Wistar, plasma of hepatic vein blood, iv, i.v. 10 μg/g, 30 min, read-out: [^3H]FUdR level HV): 77.5 ± 43.6 ng/mL
concentration at 15 min ([3]; male, Wistar, plasma of hepatic vein blood, iv, i.v. free 1.2 μg/g, 15 min, read-out: [^3H]FUdR level HV): 40.9 ± 7.7 ng/mL
concentration at 7 min ([3]; male, Wistar, plasma of inferior vena cava blood, iv, i.v. 0.15 μg/g, 7 min, read-out: [^3H]FUdR level IVC): 80.1 ± 4.2 ng/mL
concentration at 15 min ([3]; male, Wistar, plasma of inferior vena cava blood, iv, i.v. 2.5 μg/g, 15 min, read-out: [^3H]FUdR level IVC): 404 ± 47.9 ng/mL
concentration at 30 min ([3]; male, Wistar, plasma of inferior vena cava blood, iv, i.v. 2.5 μg/g, 30 min, read-out: [^3H]FUdR level IVC): 156 ± 51.9 ng/mL
concentration at 45 min ([3]; male, Wistar, plasma of inferior vena cava blood, iv, i.v. 2.5 μg/g, 45 min, read-out: [^3H]FUdR level IVC): 25.5 ± 0.2 ng/mL
concentration at 7 min ([3]; male, Wistar, plasma of inferior vena cava blood, iv, i.v. 10 μg/g, 7 min, read-out: [^3H]FUdR level IVC): 1570 ng/mL
concentration at 15 min ([3]; male, Wistar, plasma of inferior vena cava blood, iv, i.v. 10 μg/g, 15 min, read-out: [^3H]FUdR level IVC): 1060 ng/mL
concentration at 30 min ([3]; male, Wistar, plasma of inferior vena cava blood, iv, i.v. 10 μg/g, 30 min, read-out: [^3H]FUdR level IVC): 467 ± 228 ng/mL
concentration at 15 min ([3]; male, Wistar, plasma of inferior vena cava blood, iv, i.v. free 1.2 μg/g, 15 min, read-out: [^3H]FUdR level IVC): 275.2 ± 0.7 ng/mL
concentration at 30 min ([3]; male, Wistar, plasma of inferior vena cava blood, iv, i.v. free 1.2 μg/g, 30 min, read-out: [^3H]FUdR level IVC): 38.9 ± 5.8 ng/mL
[^3H]FUdR level HV ([3]; i.v. 0.15 μg/g, 7 min): BML^b) (Below Measurable Level (<25 ng/ml))
Levels in HV / Levels in IVC ([3]; i.v. 2.5 μg/g, 15 min): 0.15 ± 0.04
Levels in HV / Levels in IVC ([3]; i.v. 2.5 μg/g, 30 min): 0.19
[^3H]FUdR level HV ([3]; i.v. 2.5 μg/g, 45 min): BML (Below Measurable Level (<25 ng/ml))
Levels in HV / Levels in IVC ([3]; i.v. 10 μg/g, 7 min): 0.24
Levels in HV / Levels in IVC ([3]; i.v. 10 μg/g, 15 min): 0.19
Levels in HV / Levels in IVC ([3]; i.v. 10 μg/g, 30 min): 0.16 ± 0.02
Levels in HV / Levels in IVC ([3]; i.v. free 1.2 μg/g, 15 min): 0.15 ± 0.03
[^3H]FUdR level HV ([3]; i.v. free 1.2 μg/g, 30 min): BML (Below Measurable Level (<25 ng/ml))
[^3H]FUdR level HV ([3]; i.v. free 1.2 μg/g, 60 min): BML (Below Measurable Level (<25 ng/ml))
[^3H]FUdR level IVC ([3]; i.v. free 1.2 μg/g, 60 min): BML (Below Measurable Level (<25 ng/ml))
Estimated blood concentration of the drug [4]: about 0.2 ng/ml
